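Step 1: Grow cells in 96-well plates. Step 2: Expose to compound for 48 hours at 5 concentrations. Step 3: Interpolate endpoints linearly; if unreached, use highest concentration. GI50 marks 50% less growth.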 Calls of active or inactive are those of the source. Cut-off read from the data, not from the text of the source: active = GI50 up to about 1.1 µM and inactive = higher.
Assays:
Experiment in all cases: inhibition of tumour cell growth, NCI panel, 48 h
786-0 = test system: 786-0
A549 = test system: A549
ACHN = test system: ACHN
BT-549 = test system: BT-549
CAKI-1 = test system: CAKI-1
CCRF-CEM = test system: CCRF-CEM
COLO 205 = test system: COLO 205
DU-145 = test system: DU-145
EKVX = test system: EKVX
HCC 2998 = test system: HCC 2998
HCT-116 = test system: HCT-116
HCT-15 = test system: HCT-15
HOP-62 = test system: HOP-62
HOP-92 = test system: HOP-92
HT-29 = test system: HT-29
Hs-578T = test system: Hs-578T
IGROV-1 = test system: IGROV-1
K562 = test system: K562
KM12 = test system: KM12
LOX IMVI = test system: LOX IMVI
M14 = test system: M14
MCF7 = test system: MCF7
MDA-MB-231 = test system: MDA-MB-231
MDA-MB-435 = test system: MDA-MB-435
MDA-N = test system: MDA-N
MOLT-4 = test system: MOLT-4
Malme-3M = test system: Malme-3M
NCI-H226 = test system: NCI-H226
NCI-H23 = test system: NCI-H23
NCI-H460 = test system: NCI-H460
NCI-H522 = test system: NCI-H522
NCI/ADR-RES = test system: NCI/ADR-RES
OVCAR-3 = test system: OVCAR-3
OVCAR-4 = test system: OVCAR-4
OVCAR-5 = test system: OVCAR-5
OVCAR-8 = test system: OVCAR-8
PC-3 = test system: PC-3
RPMI-8226 = test system: RPMI-8226
RXF 393 = test system: RXF 393
SF-268 = test system: SF-268
SF-295 = test system: SF-295
SF-539 = test system: SF-539
SK-MEL-28 = test system: SK-MEL-28
SK-MEL-2 = test system: SK-MEL-2
SK-MEL-5 = test system: SK-MEL-5
SK-OV-3 = test system: SK-OV-3
SN12C = test system: SN12C
SNB-19 = test system: SNB-19
SNB-75 = test system: SNB-75
SR = test system: SR
SW-620 = test system: SW-620
T47D = test system: T47D
TK-10 = test system: TK-10
U-251 = test system: U-251
UACC-257 = test system: UACC-257
UACC-62 = test system: UACC-62
UO-31 = test system: UO-31
HL-60 = test system: HL-60

S=C(Nc1ccc(Cl)cc1)SC1CCCCC1
GI50 (786-0): 36.6 µM (inactive)
GI50 (A549): 19.2 µM (inactive)
GI50 (ACHN): 17.5 µM (inactive)
GI50 (BT-549): 29 µM (inactive)
GI50 (CAKI-1): 15 µM (inactive)
GI50 (CCRF-CEM): 33.7 µM (inactive)
GI50 (COLO 205): 30.5 µM (inactive)
GI50 (DU-145): 40.9 µM (inactive)
GI50 (EKVX): 20.8 µM (inactive)
GI50 (HCC 2998): 19.2 µM (inactive)
GI50 (HCT-116): 25.6 µM (inactive)
GI50 (HCT-15): 23.2 µM
GI50 (HOP-62): 27.7 µM (inactive)
GI50 (HOP-92): 23.5 µM (inactive)
GI50 (HT-29): 20.8 µM (inactive)
GI50 (Hs-578T): 31.8 µM (inactive)
GI50 (IGROV-1): 21.2 µM (inactive)
GI50 (K562): 36.1 µM (inactive)
GI50 (KM12): 28 µM (inactive)
GI50 (LOX IMVI): 16.4 µM (inactive)
GI50 (M14): 19.7 µM (inactive)
GI50 (MCF7): 19 µM (inactive)
GI50 (MDA-MB-231): 29.4 µM (inactive)
GI50 (MDA-MB-435): 29.9 µM (inactive)
GI50 (MDA-N): 22.8 µM (inactive)
GI50 (MOLT-4): 29.2 µM (inactive)
GI50 (Malme-3M): 28.4 µM (inactive)
GI50 (NCI-H226): 72.4 µM (inactive)
GI50 (NCI-H23): 20.5 µM (inactive)
GI50 (NCI-H460): 28.4 µM (inactive)
GI50 (NCI-H522): 19.7 µM (inactive)
GI50 (NCI/ADR-RES): 37.1 µM (inactive)
GI50 (OVCAR-3): 21.4 µM (inactive)
GI50 (OVCAR-4): 33.9 µM (inactive)
GI50 (OVCAR-5): 17.5 µM (inactive)
GI50 (OVCAR-8): 31.5 µM (inactive)
GI50 (PC-3): 35.7 µM (inactive)
GI50 (RPMI-8226): 40.1 µM (inactive)
GI50 (RXF 393): 25.1 µM (inactive)
GI50 (SF-268): 27 µM (inactive)
GI50 (SF-295): 19.1 µM (inactive)
GI50 (SF-539): 23.1 µM (inactive)
GI50 (SK-MEL-28): 17.3 µM (inactive)
GI50 (SK-MEL-2): 17.6 µM (inactive)
GI50 (SK-MEL-5): 16.7 µM (inactive)
GI50 (SK-OV-3): 27.8 µM (inactive)
GI50 (SN12C): 19.2 µM (inactive)
GI50 (SNB-19): 20.8 µM (inactive)
GI50 (SNB-75): 25.2 µM (inactive)
GI50 (SR): 32.6 µM (inactive)
GI50 (SW-620): 32.9 µM (inactive)
GI50 (T47D): 22.5 µM (inactive)
GI50 (TK-10): 40.6 µM (inactive)
GI50 (U-251): 32.4 µM (inactive)
GI50 (UACC-257): 25.9 µM (inactive)
GI50 (UACC-62): 14 µM (inactive)
GI50 (UO-31): 27 µM (inactive)

CC(C)C/N=C(\N)N=C(N)N
GI50 (786-0): > 100 µM (inactive)
GI50 (A549): > 100 µM (inactive)
GI50 (ACHN): > 100 µM (inactive)
GI50 (BT-549): > 100 µM (inactive)
GI50 (COLO 205): > 100 µM (inactive)
GI50 (DU-145): > 100 µM (inactive)
GI50 (EKVX): > 100 µM (inactive)
GI50 (HCC 2998): > 100 µM (inactive)
GI50 (HCT-116): > 100 µM (inactive)
GI50 (HCT-15): > 100 µM
GI50 (HL-60): > 100 µM (inactive)
GI50 (HOP-62): > 100 µM (inactive)
GI50 (HOP-92): > 100 µM (inactive)
GI50 (HT-29): > 100 µM (inactive)
GI50 (Hs-578T): > 100 µM (inactive)
GI50 (IGROV-1): > 100 µM (inactive)
GI50 (K562): > 100 µM (inactive)
GI50 (KM12): > 100 µM (inactive)
GI50 (LOX IMVI): > 100 µM (inactive)
GI50 (M14): > 100 µM (inactive)
GI50 (MCF7): > 100 µM (inactive)
GI50 (MDA-MB-231): > 100 µM (inactive)
GI50 (MDA-MB-435): > 100 µM (inactive)
GI50 (MDA-N): > 100 µM (inactive)
GI50 (MOLT-4): > 100 µM (inactive)
GI50 (Malme-3M): > 100 µM (inactive)
GI50 (NCI-H226): > 100 µM (inactive)
GI50 (NCI-H23): > 100 µM (inactive)
GI50 (NCI-H460): > 100 µM (inactive)
GI50 (NCI-H522): > 100 µM (inactive)
GI50 (NCI/ADR-RES): > 100 µM (inactive)
GI50 (OVCAR-3): > 100 µM (inactive)
GI50 (OVCAR-4): > 100 µM (inactive)
GI50 (OVCAR-5): > 100 µM (inactive)
GI50 (OVCAR-8): > 100 µM (inactive)
GI50 (PC-3): > 100 µM (inactive)
GI50 (RPMI-8226): > 100 µM (inactive)
GI50 (RXF 393): > 100 µM (inactive)
GI50 (SF-268): > 100 µM (inactive)
GI50 (SF-295): > 100 µM (inactive)
GI50 (SF-539): > 100 µM (inactive)
GI50 (SK-MEL-28): > 100 µM (inactive)
GI50 (SK-MEL-2): > 100 µM (inactive)
GI50 (SK-MEL-5): > 100 µM (inactive)
GI50 (SK-OV-3): > 100 µM (inactive)
GI50 (SN12C): > 100 µM (inactive)
GI50 (SNB-19): > 100 µM (inactive)
GI50 (SNB-75): > 100 µM (inactive)
GI50 (SR): > 100 µM (inactive)
GI50 (SW-620): > 100 µM (inactive)
GI50 (T47D): > 100 µM (inactive)
GI50 (TK-10): > 100 µM (inactive)
GI50 (U-251): > 100 µM (inactive)
GI50 (UACC-257): > 100 µM (inactive)
GI50 (UACC-62): > 100 µM (inactive)
GI50 (UO-31): > 100 µM (inactive)

Reference: ChEMBL document CHEMBL1201862, “PubChem BioAssay data set” (2004)
